Results on 11 molecules are retold here after patent US5385918A, “Aminomethylene-peptides as immunosuppressants” (Miles Inc., priority 1993, dated 1995).

The subject of one test is human T-cells. As to the kind of experiment: Suppression of Human T-Cell Proliferation Assay (PHA-stimulated, [3H]-thymidine incorporation). It is filed as cell-based. The following applies: inhibition of [3H]-thymidine incorporation of PHA-stimulated purified human T-cells, 72 hours. From the text: Inhibition of mitogen-induced T-cell proliferation can be used to profile immunosuppressive activity of test compounds. In the description of the assay which follows, mitogen-induced T-cell proliferation was used to test the inhibitory potencies of select compounds of the present invention.
In an assay similar to that described by Bradley in Mishell et al. (Eds.), 1980, Selected Methods in Cellular Immunology, pp 156-161, W. H. Freeman & Co., San Fransisco, Calif., T-cells were stimulated by incubation with phytohemagglutinin (PHA) which binds to cell surface molecules, including the T-cell receptor. This stimulation results in proliferation which can be measured by incorporation of [^3 H]-thymidine into cellular DNA.
Fresh LeukoPaks were obtained from the New York Blood Center, New York, N.Y. The cells, including erythrocytes and leukocytes, were diluted with Hank's Balanced Salt Solution (HBSS) (GIBCO, Grand Island, N.Y.) and layered over Lymphoprep (Nycomed Pharma AS, Oslo, Norway) in sterile 50 ml conical centrifuge tubes. Lymphocytes were isolated at the Hank's/Nycomed interface after centrifugation at 2000×g, 4° C. for 15 min. The lymphocytes were washed with Minimal Essential Medium (GIBCO) containing 2% fetal bovine serum (FBS) (Sigma Chemical Co., St. Louis, Mo.), 1% HEPES buffer (GIBCO) and 1% Penicillin-Stretomycin solution (GIBCO).
T-cells were further purified essentially by sheep erythrocyte (SRBC) rosetting as described by Morimoto et al., 1983, J. Immunol. 130:157. The isolated lymphocytes were adjusted to 2×10^7 cells/ml and 5 ml aliquots of the cell suspension were incubated for 10 minutes at room temperature with 5 ml of a 5% SRBC (Cappel, Organon Technika Corp., West Chester, Pa.) suspension. The cells were gently pelleted by centrifugation at 300 rpm for 10 minutes, followed by a 1 hour incubation at room temperature to allow rosette formation. The cells were gently resuspended,layered over Lymphoprep and centrifuged for 30 minutes at 500×g. The pellet, containing rosetted T-cells and SRBC was treated with ice cold buffered ammonium chloride (GIBCO) to lyse the erythrocytes. T-cells were washed twice with HBSS.
Purified T-cells were resuspended at 2×10^6 cells/ml in complete culture medium composed of RPMI-1640 (Whittaker Bioproducts, Walkerville, Md.) with 10% FBS (Sigma), 2 mM L-glutamine (GIBCO), 1% Penicillin-Streptomycin (GIBCO) and 15 mM HEPES (GIBCO). In 96-well plates (Becton Dickinson, Lincoln Park, N.J.), 0.1 ml aliquots of T-cell suspension were mixed with 0.05 ml of 40 μg/ml PHA-M (Sigma). The compounds of this invention were dissolved in dimethylsulfoxide at 10 mM and various dilutions in complete medium were added in duplicate wells (0.05 ml/well). The plates were incubated at 37° C. in a humidified atmosphere of 5% carbon dioxide and 95% air for 72 hours.
Proliferation was assessed by measurement of [^3 H]-thymidine incorporation. During the last 6 hours of incubation, the cells were pulse labelled with 1 μCi/well of [^3 H]-thymidine (New England Nuclear, Boston, Mass.). The cells were harvested onto glass fiber paper using a plate harvester and the radioactivity incorporated into cellular DNA corresponding to individual wells was measured by standard liquid scintillation counting methods. The mean counts per minute (CPM) of replicate wells was calculated and linear regression analysis of mean CPM versus compound concentration was used to determine the concentration of compound which would inhibit [^3 H]-thymidine incorporation of T-cells by 50% (IC50).
(Incorporation of labelled thymidine or its analogues reports DNA synthesis.)

Another test concerns the target FKBP (Homo sapiens, UniProt P62942). Briefly: PPIase Inhibition Assay. The test is classed as biochemical. The following applies: inhibition of PPIase activity of FKBP, substrate Succinyl-Ala-Phe-Pro-Phe-para-nitroanilide. The method, then: This assay follows in principle the procedure described in Kofron et al., 1991, Biochemistry 30:6127. The three main reagents used are PPIase, a substrate for PPIase, and a selected inhibitor compound of the present invention. The basic principle behind this assay is the conversion of the cis isomer of the substrate to the trans form, which conversion is catalyzed by PPIase. Essentially, inhibition of this PPIase activity is measured for the selected compounds. A peptide chymotrypsin substrate containing a proline in the P2 position is only cleaved by chymotrypsin when the Phe-Pro bond is in the trans isomeric configuration. In the presence of excess chymotrypsin, all of the trans peptide isomers are cleaved within approximately five seconds, leaving only cis forms.
The cis peptide will spontaneously convert to the trans isomer at a slow rate. The cis to trans conversion is catalyzed by isomerases at a much faster rate than this spontaneous conversion. Proteins with PPIase activity are examples of such isomerases. After isomerization, the peptide is cleaved by chymotrypsin releasing p-nitroaniline which can be monitored at 390 nm. The rate of release is then calculated using a first order rate plus offset equation utilizing the ENZFITTER program (Leatherbarrow, BIOSOFT, Cambridge, United Kingdom).
In a plastic cuvette are added 950 ul of ice cold assay buffer (25 mM HEPES, pH 7.8, 100 mM NaCl), 10 uL of FKBP (2.5 uM in 10 mM Tris-Cl pH 7.5, 100 mM NaCl, 1 mM dithiothreitol), 25 ul of chymotrypsin (50 mg/ml in 1 mM HCl) and 10 ul of the test compound at various concentrations in dimethyl sulphoxide. The reaction is initiated by addition of 5 ul of substrate (Succinyl-Ala-Phe-Pro-Phe-para-nitroanilide, 5 mg/ml in 235 mM LiCl in trifluoroethanol).
The absorbance at 390 nm versus time is monitored for 90 sec using a Beckman DU70 spectrophotometer. The absorbance versus time data files are transferred to an IBM XT computer and the rate constants determined using the commercial Enzfitter program. For each set of data, the uncatalyzed rate of conversion is measured and the uninhibited enzymatic rate determined. The data are expressed as % Inhibition and are calculated as follows: [formula] where kobs is the rate in the presence of a selected test compound, kuncat is the rate in the absence of enzyme, and kuninh is the rate in the presence of enzyme and absence of inhibitor. Data are plotted as percent inhibition versus concentration of inhibitor. The values of the concentration of inhibitor required for 50% inhibition of enzyme activity (IC50) were determined by nonlinear least squares regression analysis.

Structures are written as SMILES. Where only a bound is given, the exact number is not on record here.

Sequence of FKBP (P62942 whole entry): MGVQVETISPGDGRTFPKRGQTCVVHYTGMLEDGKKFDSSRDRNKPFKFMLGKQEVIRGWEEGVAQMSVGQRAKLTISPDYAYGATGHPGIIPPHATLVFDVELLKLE

Turning to `CC[C@H](C)[C@H](NC(=O)[C@@H]1CCCCN1C[C@@H](NC(=O)CC(C)(C)C)[C@@H](C)CC)C(=O)NCc1ccccc1` [Example 22, 1-[1-[2-(S)-[(3,3-dimethyl-butyryl)-amino]-3-(S)-methylpentyl]-L-homoproline]-L-isoleucine benzylamide], the midpoint of inhibition with human T-cells, the IC50, lay at 1000 nM.

Take `CC[C@H](C)[C@H](NC(=O)[C@@H]1CCCN1C[C@H](CC(C)C)NC(=O)[C@H](CC(N)=O)NC(=O)[C@@H](N)Cc1ccccc1)C(=O)OCc1ccccc1` [Example 15, 1-[1-[2-(S)-[[1-[2-(S)-Amino-1-Oxo-3-phenylpropyl]-L-asparaginyl]amino]-4-methylpentyl]-L-proline]-L-isoleucine Phenylmethyl Ester]: half-maximal inhibition on FKBP (IC50) was put at 2500 nM.

For `CC[C@H](C)[C@H](NC(=O)[C@@H]1CCCN1CC(CC(C)C)NC(=O)OC(C)(C)C)C(=O)OCc1ccccc1` (stereo partly drawn) [Example 5, 1-[1-[2-[[(1,1-Dimethylethoxy)carbonyl]amino]-4-methylpentyl]-L-proline]-L- Isoleucine Phenylmethyl Ester], the IC50 (in general, the concentration at which inhibition is half-maximal) at FKBP was 3000 nM; with human T-cells it was 27000 nM. Regarding `CC[C@H](C)[C@H](NC(=O)[C@@H]1CCCN1CC(CC(C)C)NC(=O)[C@H](CC1CCCCC1)NC(=O)OC(C)(C)C)C(=O)OCc1ccccc1` (stereo partly drawn) [Example 11, 1-[1-[2-[[3-Cyclohexyl-2-(S)-[[(1,1-dimethylethoxy)-carbonyl]amino]-1-oxopropyl]amino]-4-methylpentyl]-L-proline]-L-isoleucine Phenylmethyl Ester], the IC50 against FKBP was 8400 nM; in the test on human T-cells, less than 6000 nM. Turning to `CC[C@H](C)[C@H](NC(=O)[C@@H]1CCCCN1C[C@@H](NC(=O)C(C)(C)C)[C@@H](C)CC)C(=O)NCc1ccccc1` [Example 21, 1-[1-[2-(S)-[(2,2-Dimethyl-propionyl)-amino]-3-(S)-methylpentyl]-L-homoproline]-L-isoleucine benzylamide], in the test on human T-cells, 720 nM corresponded to half-maximal inhibition (IC50). As to `CC[C@H](C)[C@H](NC(=O)[C@@H]1CCCN1C[C@H](CC(C)C)NC(=O)[C@@H](N)CC1CCCCC1)C(=O)OCc1ccccc1` [Example 13, 1-[1-[2-(S)-[[2-(S)-amino-3-cyclohexyl-1-oxopropyl]-amino]-4-methylpentyl]-L-proline]-L-isoleucine Phenylmethyl Ester], the IC50 against FKBP is 1300 nM; in the test on human T-cells it was less than 6000 nM. `CC[C@H](C)[C@H](NC(=O)[C@@H]1CCCN1C[C@H](CC(C)C)NC(=O)[C@@H](N)CC(N)=O)C(=O)OCc1ccccc1` [Example 12]: the IC50 is 2400 nM against FKBP and less than 6000 nM in the test with human T-cells.

`CCCC(=O)N[C@H](CN1CCCC[C@H]1C(=O)N[C@H](C(=O)NCc1ccccc1)[C@@H](C)CC)[C@@H](C)CC` [Example 24] registered an IC50 with human T-cells of 1700 nM. On to `CC[C@H](C)[C@H](NC(=O)[C@@H]1CCCN1C[C@H](CC(C)C)NC(=O)[C@H](CC(N)=O)NC(=O)OC(C)(C)C)C(=O)OCc1ccccc1` [Example 10, 1-[1-[2-(S)-[[4-Amino-2-(S)-[[(1,1-dimethylethoxy)-carbonyl]amino]-1,4-dioxobutyl]amino]-4-methylpentyl]-L-proline]-L-isoleucine Phenylmethyl Ester], for which the IC50 on FKBP is 900 nM; with human T-cells, 30000 nM. Take `COC(=O)[C@H](Cc1ccc(OC)cc1)N(C)C(=O)[C@@H]1CCCN1C[C@H](CC(C)C)NC(=O)OC(C)(C)C` [Example 9, 1-Methyl-1-[1-[2-(S)-[[(1,1-dimethylethoxy)carbonyl]amino]-4-methylpentyl]-L-proline]-L-Tyrosine(O-Methyl)Methyl Ester]: the IC50 was greater than 50000 nM against FKBP and 16000 nM in the test with human T-cells.

Molecule `CC[C@H](C)[C@H](NC(=O)[C@@H]1CCCCN1C[C@@H](NC(=O)CC(C)C)[C@@H](C)CC)C(=O)NCc1ccccc1` [Example 23, 1-[1-[2-(S)-[(3-methyl-butyryl)-amino]-3-(S)-methylpentyl]-L-homoproline]-L -isoleucine benzylamide] showed an IC50 in the test on human T-cells of 900 nM.
